Measurements published in patent publication US9651864B2, “Negative resist composition, method for producing relief pattern using the same, and electronic component using the same” (DAI NIPPON PRINTING CO., LTD., priority 2010, dated 2017).

Columns and labels:
Assay type in all cases: physicochemical
[1] = Glass transition temperature (Tg) by differential thermal analyzer DSC-60; conditions: second heating to 200° C. at 10° C./min; deemed 200° C. or more when no inflection point until 200° C.
Method: Glass transition temperature (Tg): an intersection point of two tangents to smooth curving lines before and after the inflection temperature point of a DTA curve, the DTA curve being obtained when a material for forming a pattern of about 4 mg was heated to 200° C. at a rate of 10° C./min, cooled to room temperature and then heated to 200° C. at a rate of 10° C./min again, with a differential thermal analyzer (DSC-60 manufactured by Shimadzu Corporation).
Tg was deemed as 200° C. or more when no inflection point was found on the DTA curve until 200° C., which point corresponds to glass transition temperature.

[2] = Evaluation of solvent solubility of phenolic compound in typical resist solvents; set-up: key to Solubility in (D)-2: ⊚: The material for forming a pattern was dissolved at a concentration of 5 wt % at 23° C.; ◯: The material for forming a pattern was dissolved at a concentration of 1 wt % at 23° C.; X: The material for forming a pattern was insoluble; conditions: for Solubility in (D)-1: (D)-1: Propylene glycol monomethylether; for Solubility in (D)-1 / Solubility in (D)-2: 1 or 5 wt % at 23° C.; for Solubility in (D)-2: (D)-2: Propylene glycol monomethyl ether acetate
Method: The phenolic compounds (A-01 to A-15) obtained in Synthesis Examples 1 to 15 and the comparative phenolic compounds (CA-01 and CA-02) were added to the following typical resist solvents so as to have a concentration of 1 or 5 wt % at 23° C., followed by stirring:
(D)-1: Propylene glycol monomethylether
(D)-2: Propylene glycol monomethyl ether acetate
The thus-obtained mixtures were evaluated based on the following evaluation criterion.
? : The material for forming a pattern was dissolved at a concentration of 5 wt % at 23° C.,
∘: The material for forming a pattern was dissolved at a concentration of 1 wt % at 23° C.
x: The material for forming a pattern was insoluble.

[3] = as above; conditions: (D)-3: Cyclopentanone; 1 or 5 wt % at 23° C.

| Structure (SMILES) | Glass Transition Temperature [1] | Solubility in (D)-1 [2] | Solubility in (D)-2 [2] | solubility in propylene glycol monomethyl ether [2] [%] | Solubility in (D)-3 [3] | solubility in resist solvents (in words) ([2]; summary of Table 3) |
| --- | --- | --- | --- | --- | --- | --- |
| CC(C)(C1CCC(c2cc(CO)c(O)c(CO)c2)(c2cc(CO)c(O)c(CO)c2)CC1)C1CCC(c2cc(CO)c(O)c(CO)c2)(c2cc(CO)c(O)c(CO)c2)CC1 [Compound A-01] | 63 °C | ◯ (The material for forming a pattern was dissolved at a concentration of 1 wt % at 23° C.) | ◯ (The material for forming a pattern was dissolved at a concentration of 1 wt % at 23° C.) | 2 | ⊚ (The material for forming a pattern was dissolved at a concentration of 5 wt % at 23° C.) |  |
| COCc1cc(C(c2cc(C)c(O)c(COC)c2)C(c2cc(C)c(O)c(COC)c2)c2cc(C)c(O)c(COC)c2)cc(C)c1O [Compound A-12] | 200 °C or | ⊚ (The material for forming a pattern was dissolved at a concentration of 5 wt % at 23° C.) | ⊚ (The material for forming a pattern was dissolved at a concentration of 5 wt % at 23° C.) |  | ⊚ (The material for forming a pattern was dissolved at a concentration of 5 wt % at 23° C.) |  |
| OCc1cc(C2(c3cc(CO)c(O)c(CO)c3)c3ccccc3-c3ccccc32)cc(CO)c1O [Compound A-04] | 62 °C | ⊚ (The material for forming a pattern was dissolved at a concentration of 5 wt % at 23° C.) | ⊚ (The material for forming a pattern was dissolved at a concentration of 5 wt % at 23° C.) |  | ⊚ (The material for forming a pattern was dissolved at a concentration of 5 wt % at 23° C.) |  |
| OCc1cc(C(c2cc(CO)c(O)c(C3CCCCC3)c2)C(c2cc(CO)c(O)c(C3CCCCC3)c2)c2cc(CO)c(O)c(C3CCCCC3)c2)cc(C2CCCCC2)c1O [Compound A-09] | 200 °C or | ⊚ (The material for forming a pattern was dissolved at a concentration of 5 wt % at 23° C.) | ⊚ (The material for forming a pattern was dissolved at a concentration of 5 wt % at 23° C.) |  | ⊚ (The material for forming a pattern was dissolved at a concentration of 5 wt % at 23° C.) |  |
| Cc1cc(C(c2cc(C)c(O)c(CO)c2)C(c2cc(C)c(O)c(CO)c2)c2cc(C)c(O)c(CO)c2)cc(CO)c1O [Compound A-02] | 200 °C or | ⊚ (The material for forming a pattern was dissolved at a concentration of 5 wt % at 23° C.) | ◯ (The material for forming a pattern was dissolved at a concentration of 1 wt % at 23° C.) | 5 | ⊚ (The material for forming a pattern was dissolved at a concentration of 5 wt % at 23° C.) |  |
| Cc1cc(C2(c3cc(C)c(O)c(CO)c3)CCC(C(C)(C)C3CCC(c4cc(C)c(O)c(CO)c4)(c4cc(C)c(O)c(CO)c4)CC3)CC2)cc(CO)c1O [Compound A-13] | 200 °C or | ⊚ (The material for forming a pattern was dissolved at a concentration of 5 wt % at 23° C.) | ⊚ (The material for forming a pattern was dissolved at a concentration of 5 wt % at 23° C.) |  | ⊚ (The material for forming a pattern was dissolved at a concentration of 5 wt % at 23° C.) |  |
| CC(C)(c1cccc(C(C)(C)c2cc(CO)c(O)c(CO)c2)c1)c1cc(CO)c(O)c(CO)c1 [Compound A-05] | 135 °C | ⊚ (The material for forming a pattern was dissolved at a concentration of 5 wt % at 23° C.) | ◯ (The material for forming a pattern was dissolved at a concentration of 1 wt % at 23° C.) |  | ⊚ (The material for forming a pattern was dissolved at a concentration of 5 wt % at 23° C.) |  |
| c1cc(C(c2ccc(OCC3CO3)cc2)C(c2ccc(OCC3CO3)cc2)c2ccc(OCC3CO3)cc2)ccc1OCC1CO1 (stereo not drawn) [TEP-G, reference compound] | 47 °C |  |  |  |  |  |
| CC(C)(c1cc(CO)c(O)c(CO)c1)c1cc(CO)c(O)c(CO)c1 [CA-01, 2,2-bis(4-hydroxy-3,5-dihydroxymethylphenyl)propane, reference compound] | 27 °C | ◯ (The material for forming a pattern was dissolved at a concentration of 1 wt % at 23° C.) | X |  | ◯ (The material for forming a pattern was dissolved at a concentration of 1 wt % at 23° C.) | dissolve in only specific solvents |
